According to US6576635B2, “Compositions comprising trimetrexate” (MedImmune Oncology, Inc., priority 1999, dated 2003):

Assays:
[1] = Relative light stability of dosage forms; format: physicochemical
Excerpt: (§1) Dosage forms of trimetrexate glucuronate and trimetrexate ascorbate were dispersed in thin films on watch glasses and exposed to illumination in an air atmosphere over time. The overall illumination was approximately 0.28 million lux hours per day and the integrated near ultraviolet energy was approximately 210 watt hours per square meter per day. Therefore at day 9 the dosage forms had received approximately 2.5 million lux hours of illumination and approximately 1900 watt hours per square meter of integrated near ultraviolet energy. The dosage forms were tested over time for trimetrexate decomposition and observed for physical appearance. Both dosage forms were tested according to the method in Example 2, except the amount of ascorbic acid equivalent to that in the dosage form was added to the trimetrexate HPLC standards being used to evaluate the ascorbate formulation to give equivalent response factors.
(§2) In Table 9, the total quantity of trimetrexate free base is expressed as percent of the initial amount of trimetrexate, and the total amount of impurities is expressed as the sum of the weight percent of the aldehyde degradant and area percent of all other impurities. The oxidative degradation pathway of trimetrexate generates the aldehyde degradant. Its response factor has been determined to be 0.62 relative to that of trimetrexate. Therefore the weight percent of the aldehyde degradant is obtained by dividing the area percent value by the response factor of 0.62.

[2] = Relative thermal stability of solid dosage forms; format: physicochemical; design: key to Appearance: S = satisfactory (pale green-yellow solid); conditions: 40° C.
Protocol: Both dosage forms were tested according to the method in Example 2, except the amount of ascorbic acid equivalent to that in the dosage form was added to the trimetrexate HPLC standards being used to evaluate the ascorbate formulation to give equivalent response factors.

[3] = Relative thermal stability of reconstituted dosage forms; format: physicochemical; design: key to Appearance: S = satisfactory (pale green-yellow solution); U = unsatisfactory (discolored solution); conditions: 25 ° C.
Protocol: One bulk solution of each dosage form was prepared by combining its vials, held at 25 ° C. and 60% relative humidity in closed containers and tested over time for trimetrexate decomposition and observed for physical appearance. Both dosage forms were tested according to the method in Example 2, except the amount of ascorbic acid equivalent to that in the dosage form was added to the trimetrexate standards being used to evaluate the ascorbate formulation to give equivalent response factors.

[4] = Relative light stability of dosage forms; format: physicochemical; design: key: S = satisfactory (pale green-yellow solid)
Excerpt: as §1, §2

[5] = Relative light stability of dosage forms; format: physicochemical; design: key: S = satisfactory (pale green-yellow solid); U = unsatisfactory (discolored solid)
Excerpt: as §1, §2

P450 enzyme system = conditions: cited from earlier work
[6] = tested on: murine cell lines such as L1210, L5178Y, S-180, W-256; conditions: cited from earlier work
[7] = tested on: human tumor cells lines derived from breast, colon, lung, ovary, renal and melanoma cells; conditions: cited from earlier work
[8] = cited from earlier work
[9] = tested on: murine tumors such as B16 melanoma, colon 26 and 38, L1210 and P388 leukemia and CD8F mammary tumors; conditions: cited from earlier work
[10] = exposed to oxygen at room temperature; cited from earlier work
[11] = in 1:1 methanol/water; cited from earlier work
[12] = day 0 of illumination, weight percent aldehyde + area percent other impurities
[13] = day 0, reconstituted ~12.5 mg/ml, 60% RH
[14] = day 0, reconstituted ~12.5 mg/ml, 60% RH, HPLC area
[15] = day 0, reconstituted ~12.5 mg/ml, 60% relative humidity
[16] = day 0, thin film, illumination ~0.28 million lux hours per day, air
[17] = day 9 of illumination (~2.5 million lux hours)

## COc1cc(NCc2ccc3nc(N)nc(N)c3c2C)cc(OC)c1OC.O=C1O[C@H]([C@@H](O)CO)C(O)=C1O [Trimetrexate Ascorbate]
[1]; day 0 of illumination
  % Aldehyde Degredant (w/w): 0.1%
  % TMX of Initial: 100.0%
[1]; [12]
  % Total Imp.: 0.1%
[1]; day 2 of illumination
  % Aldehyde Degredant (w/w): 0.1%
  % TMX of Initial: 98.3%
  % Total Imp.: 0.4%
[1]; day 4 of illumination
  % Aldehyde Degredant (w/w): 0.1%
  % TMX of Initial: 97.7%
  % Total Imp.: 0.6%
[1]; day 6 of illumination
  % Aldehyde Degredant (w/w): 0.1%
  % TMX of Initial: 97.1%
  % Total Imp.: 1.0%
[1]; day 9 of illumination
  % Aldehyde Degredant (w/w): 0.2%
  % TMX of Initial: 96.1%
  % Total Imp.: 1.4%
[2]; 1 month, 75% RH
  % Label Claim: 100.0%
[2]; 1 month, 75% RH, HPLC area
  % Total Imp.: <0.1%
[2]; 1 month, 75% relative humidity
  Appearance: S
[2]; 2 months, 75% RH
  % Label Claim: 99.6%
  % Total Imp.: <0.1%
  Appearance: S
[2]; 3 months, 75% RH
  % Label Claim: 98.9%
  % Total Imp.: <0.1%
  Appearance: S
[3]; [13]
  % Label Claim: 99.0%
[3]; [14]
  % Total Imp.: 0.1%
[3]; [15]
  Appearance: S
[3]; day 1, reconstituted, 60% RH
  % Label Claim: 98.5%
  % Total Imp.: 0.1%
  Appearance: S
[3]; day 2, reconstituted, 60% RH
  % Label Claim: 98.4%
  % Total Imp.: 0.1%
  Appearance: S
[3]; day 3, reconstituted, 60% RH
  % Label Claim: 98.8%
  % Total Imp.: 0.2%
  Appearance: S
[3]; day 4, reconstituted, 60% RH
  % Label Claim: 101.0%
  % Total Imp.: 0.4%
  Appearance: S
[3]; day 5, reconstituted, 60% RH
  % Label Claim: 98.2%
  % Total Imp.: 0.3%
  Appearance: S
[3]; day 6, reconstituted, 60% RH
  % Label Claim: 96.5%
  % Total Imp.: 0.4%
  Appearance: S
[3]; day 7, reconstituted, 60% RH
  % Label Claim: 98.7%
  % Total Imp.: 0.6%
  Appearance: S
[4]; [16]
  Appearance: S
[4]; day 2 of illumination
  Appearance: S
[4]; day 4 of illumination
  Appearance: S
[4]; day 6 of illumination
  Appearance: S
[4]; [17]
  Appearance: S

## COc1cc(NCc2ccc3nc(N)nc(N)c3c2C)cc(OC)c1OC.O=C(O)[C@H]1O[C@H](O)[C@H](O)[C@@H](O)[C@@H]1O [Trimetrexate Glucuronate]
[5]; day 2 of illumination
  Appearance: U
[5]; day 4 of illumination
  Appearance: U
[5]; day 6 of illumination
  Appearance: U
[5]; [17]
  Appearance: U
[1]; day 0 of illumination
  % Aldehyde Degredant (w/w): 0.3%
  % TMX of Initial: 100.0%
[1]; [12]
  % Total Imp.: 0.9%
[1]; day 2 of illumination
  % Aldehyde Degredant (w/w): 2.0%
  % TMX of Initial: 94.4%
  % Total Imp.: 3.1%
[1]; day 4 of illumination
  % Aldehyde Degredant (w/w): 3.8%
  % TMX of Initial: 92.4%
  % Total Imp.: 5.6%
[1]; day 6 of illumination
  % Aldehyde Degredant (w/w): 5.6%
  % TMX of Initial: 87.9%
  % Total Imp.: 8.1%
[1]; day 9 of illumination
  % Aldehyde Degredant (w/w): 8.2%
  % TMX of Initial: 83.6%
  % Total Imp.: 11.8%
[2]; 1 month, 75% RH
  % Label Claim: 99.6%
[2]; 1 month, 75% RH, HPLC area
  % Total Imp.: 0.1%
[2]; 1 month, 75% relative humidity
  Appearance: S
[2]; 2 months, 75% RH
  % Label Claim: 100.7%
  % Total Imp.: 0.2%
  Appearance: S
[2]; 3 months, 75% RH
  % Label Claim: 98.0%
  % Total Imp.: 0.3%
  Appearance: S
[3]; [13]
  % Label Claim: 95.9%
[3]; [14]
  % Total Imp.: 0.2%
[3]; [15]
  Appearance: S
[3]; day 1, reconstituted, 60% RH
  % Label Claim: 98.6%
  % Total Imp.: 0.2%
  Appearance: S
[3]; day 2, reconstituted, 60% RH
  % Label Claim: 96.8%
  % Total Imp.: 0.4%
  Appearance: S
[3]; day 3, reconstituted, 60% RH
  % Label Claim: 97.1%
  % Total Imp.: 0.5%
  Appearance: U
[3]; day 4, reconstituted, 60% RH
  % Label Claim: 96.1%
  % Total Imp.: 0.8%
  Appearance: U
[3]; day 5, reconstituted, 60% RH
  % Label Claim: 96.5%
  % Total Imp.: 1.1%
  Appearance: U
[3]; day 6, reconstituted, 60% RH
  % Label Claim: 95.0%
  % Total Imp.: 1.5%
  Appearance: U
[3]; day 7, reconstituted, 60% RH
  % Label Claim: 92.1%
  % Total Imp.: 1.9%
  Appearance: U
[4]; [16]
  Appearance: S

## COc1cc(NCc2ccc3nc(N)nc(N)c3c2C)cc(OC)c1OC [trimetrexate free base, 2,4-diamino-5-methyl-6-[(3,4,5-trimethoxyanilino)methyl]quinazoline]
P450 enzyme system
  metabolism: metabolized by a P450 enzyme system
[6]
  in vitro antitumor activity: in vitro antitumor activity
[7]
  in vitro activity against human tumor cell lines: in vitro activity
[8]
  water solubility: < 100 µg/mL
[9]
  in vivo utility against murine tumors: in vivo utility
[10]
  decomposition: decomposes over time
[11]
  pKa: 8.0
